Experimental data reported in US20160237160A1, “ANTI-TWEAKR ANTIBODIES AND USES THEREOF” (BAYER PHARMA AKTIENGESELLSCHAFT, priority 2013, published 2016).
pKd: −log10 of the molar value. Like-named read-outs stand apart in the source and are kept apart here. Values belong to the substance of their own block, whether it stands above or below them.

Tests used:
[1] = target: T1, TWEAKR-Fc fusion protein (TPP-2202), aa 28-80 (Homo sapiens, UniProt Q9NP84); experiment: ELISA with TWEAKR full ectodomain; format: binding; settings: coating 1 μg/ml; 0.08 and 0.3 μg/ml biotinylated IgG
T1 construct: the full ectodomain 28-80 including the N- and C-terminus; made in house
Source text: (§1) In a first approach to characterize the binding epitope of the aforementioned antibodies, a N- and C-terminal truncation mutant of the TWEAKR ectodomain was generated and tested for its ability to bind to the different anti-TWEAKR antibodies. N-terminally, amino acids 28 to 33 and C-terminally amino acids 69 to 80 were deleted, thus the cysteine rich domain with disulfide bridges between Cys36-Cys49, Cys52-Cys67 and Cys55-Cys64 remains intact (compare FIG. 2). Both constructs, the full ectodomain 28-80 including the N- and C-terminus and the truncated ectodomain 34-68 were expressed and purified as Fc fusion proteins TPP-2202 and TPP-2203, respectively.
(§2) To analyze for binding, 1 μg/ml of the respective dimeric TWEAKR-Fc construct were coated and, 0.3 μg/ml and 0.08 μg/ml of biotinylated IgG were used as soluble binding partner. Detection was done with Streptavidin-HRP and Amplex-Red substrate. IgGs were biotinylated using an approximately 2-fold molar excess of biotin-LC-NHS (Pierce; Cat. No. 21347) according to manufacturer's instructions and desalted using Zeba desalting columns (Pierce; Cat. No. 89889).

[2] = target: T2, TWEAKR protein (TPP-2305) (Homo sapiens, UniProt Q9NP84); experiment: Biacore monovalent KD with TWEAKR protein; format: binding; settings: for ka / kd: first order 1:1 binding model
T2 construct: TPP-2305; hTNFRSF12Aaa28-80; Human; 30R-AT080; 168; purchased Fitzgerald Inc 30R-AT080
Method: Binding affinities of anti-TWEAKR antibodies were determined by surface plasmon resonance analysis on a Biacore T100 instrument (GE Healthcare Biacore, Inc.). Antibodies were immobilized onto a CM5 sensor chip through an indirect capturing reagent, anti-human IgG(Fc). Reagents from the “Human Antibody Capture Kit” (BR-1008-39, GE Healthcare Biacore, Inc.) were used as described by the manufacturer. Anti-TWEAKR antibodies were injected at a concentration of 10 μg/ml at 10 μl/min for 10 sec.
Sensorgrams were generated after in-line reference cell correction followed by buffer sample subtraction. The dissociation equilibrium constant (KD) was calculated based on the ratio of association (kon) and dissociation rated (koff) constants, obtained by fitting sensorgrams with a first order 1:1 binding model.

TWEAKR = TWEAKR (Homo sapiens, UniProt Q9NP84); settings: published data, read-out: KD / binding affinity to TWEAKR (published), cited from earlier work
[3] = target: T3, TWEAKR(28-68)-HIS (TPP-1984) (Homo sapiens, UniProt Q9NP84); experiment: ELISA with C-terminally truncated TWEAKR ectodomain; format: binding; settings: coating 1 μg/ml; 0.08 and 0.3 μg/ml biotinylated IgG
T3 construct: Extracellular domain with C-terminal truncation (28-68) fused to HIS6 tag; made in house
Method: as §2

[4] = target: T4, TWEAKR(34-68)-Fc fusion protein (TPP-2203) (Homo sapiens, UniProt Q9NP84); experiment: ELISA with TWEAKR cysteine rich domain; format: binding; settings: coating 1 μg/ml; 0.08 and 0.3 μg/ml biotinylated IgG
T4 construct: the truncated ectodomain 34-68 were expressed and purified as Fc fusion proteins; made in house
Source text: as §1, §2

Lovo cells = experiment: Inhibition of proliferation (Cell Titer Glo); format: cell-based, human; settings: 72h, 100 μg/ml antibody or *100 ng/ml TWEAK
Method: (§3) Therefore cells were plated in 96well plates in 750 assay medium (growth media from Table 21, plus 100 ng/ml IFN gamma for 786-O cells) at the following cell numbers: WiDr cells 3000 cells/well, 786-O cells 2500 cells/well. 24 h later cells were incubated with anti-TWEAKR antibodies (see Table 26), recombinant human TWEAK or isotype control IgG (not shown) at the indicated concentrations (antibodies from 0.03-300 μg/ml, TWEAK 100 or 300 ng/ml). At the time of antibody addition cell viability was determined in sister plates (time point zero): therefore 750/well CTG solution (Promega Cell Titer Glo solution (catalog # G755B and G756B) was added to the cells, incubated for 10 minutes and luminescence was read on a Victor V (Perkin Elmer). 96 h after incubation with the agents, cell viability was determined in the assay plates by addition of 100 μl/well CTG solution, 10 min incubation and reading of luminescence. Proliferation in control wells was calculated by subtracting time zero values from the luminescence values in the untreated control wells. % of cell proliferation was calculated in the compound treated wells as compared to the untreated control wells.
(§4) To evaluate, whether this strong anti-proliferative activity can also be observed in a broader cell panel, in addition LOVO, NCI-H1975, SW-480 (all 3000 cells/well), HT-29 (4000 cells/well), A253 and SK-OV3 (both 2500 cells/well) cells were incubated with 100 μg/ml anti-TWEAKR antibodies or TWEAK ligand for the time periods as indicated in Table 27. All cells were seeded in the growth media indicated in Table 21 and for all cells except for WiDr cells 100 ng/ml IFNgamma was added to the assay medium when seeding the cells. The percentage of growth inhibition for treated cells as compared to proliferation in untreated control cells was measured and calculated as described above. As shown in Table 27 the antibodies of the current invention are more efficacious as compared to other known antibodies in inhibiting proliferation of various cancer cell lines at 100 μg/ml. In most experiments the antibodies of the current invention also show equal or stronger efficacy as compared to 100-300 ng/ml TWEAK ligand. Thus, the antibodies described in this invention are unique in their activity to induce apoptosis and proliferation inhibition in a broad panel of cancer cell lines.

SW480 cells = experiment: Inhibition of proliferation (Cell Titer Glo); format: cell-based, human; settings: 72h, 100 μg/ml antibody or *100 ng/ml TWEAK
Method: as §3, §4

NCI-H1975 cells = experiment: Inhibition of proliferation (Cell Titer Glo); format: cell-based, human; settings: 72h, 100 μg/ml antibody or *100 ng/ml TWEAK
Method: as §3, §4

A375 cells [5] = experiment: IL-8 secretion ELISA; format: cell-based, human; settings: 100 μg/ml, 24 h
Method: Therefore A375 cells were plated at 2500 cells/well in 96well plates in growth medium DMEM (Biochrom;# FG 0435, with stable Glutamin), 10% FCS. 24 h later cells were incubated with anti-TWEAKR antibodies, recombinant human TWEAK at various concentrations as indicated or corresponding isotype control IgG. 24 h after start of the incubation with the antibodies, cell supernatant or dilutions thereof were added to the Capture Elisa Plate of the human CXCL8/IL-8 ELISA Kit (R&D Systems DY208) and incubated over night at 4° C. by shaking 300 rpm. On the next day, samples were analyzed by using the human CXCL8/IL-8-ELISA Kit (R&D Systems DY208) according to the manufacturer's instructions. Optical density was measured at 450 nm (Tecan Spectra, Rainbow) together with background correction. To calculate absolute levels of IL-8 a standard curve using recombinant human IL-8 protein was applied according to the manufacturer's recommendations (R&D Systems).

WiDr cells [6] = experiment: Inhibition of proliferation (Cell Titer Glo); format: cell-based, human; settings: 96h, 100 μg/ml antibody, no IFN gamma
Method: All cells were seeded in the growth media indicated in Table 21 and for all cells except for WiDr cells 100 ng/ml IFNgamma was added to the assay medium when seeding the cells. […]

WiDr cells [7] = experiment: FACS binding to cell surface; design: species or system human; settings: 10 μg/ml
Method: (§5) To determine the binding characteristics of the anti-TWEAKR antibodies on mouse and human cancer cell lines, binding was tested by flow cytometry to a panel of cell lines. Adherent cells were washed twice with PBS without Ca and Mg (Biochrom #L1825: aqueous solution containing 8000 mg/l NaCl, 200 mg/l KCl, 1150 mg/l Na2HPO4, and 200 mg/l KH2PO4) and detached by enzyme-free PBS based cell dissociation buffer (Invitrogen). Cells were suspended at approximately 10^5 cells/well in FACS buffer (PBS without Ca/Mg, containing 3% FCS, Biochrom). Cells were centrifuged (250 g, 5 min, 4° C.) and supernatant discarded. Cells were resuspended in dilutions of the antibodies of interest (10 μg/ml in 80 μl if not indicated otherwise) in FACS buffer, and incubated on ice for 1 h. In the following cells were washed once with 1000 cold FACS buffer and 80 μl secondary antibody diluted at 1:150 (PE goat anti-human IgG, Dianova #109-115-098, or PE Goat Anti-Mouse IgG, Jackson Immuno Research #115-115-164) was added. After incubation for 1 h on ice cells were again washed with cold FACS buffer, resuspended in 1000 FACS buffer and analyzed by flow cytometry using a FACS-Array (BD Biosciences). Results are calculated as Geo Mean of fluorescence detected by the antibody of interest subtracted by background fluorescence as measured by detection with the secondary antibody alone. Values are scored according to the following system: Geo Mean−Geo Mean of secondary antibody alone >10: +, >100: ++, >1000: +++, 10000: ++++, close to category border in ( ).

786-O cells [8] = experiment: FACS binding to cell surface; design: species or system human; settings: 10 μg/ml
Method: as §5

HT-29 cells [9] = experiment: FACS binding to cell surface; design: species or system human; settings: HT29; 10 μg/ml
Method: as §5

A375 cells [10] = experiment: FACS binding to cell surface; design: species or system human; settings: 10 μg/ml
Method: as §5

SK-OV-3 cells = experiment: FACS binding to cell surface; design: species or system human; settings: SKOV-3; 10 μg/ml
Method: as §5

NCI-H322 cells = experiment: FACS binding to cell surface; design: species or system human; settings: 10 μg/ml
Method: as §5

786-O cells [11] = experiment: Inhibition of proliferation (Cell Titer Glo); format: cell-based, human; settings: 96h, 100 μg/ml antibody or *100 ng/ml TWEAK
Method: as §3, §4

HT-29 cells [12] = experiment: Inhibition of proliferation (Cell Titer Glo); format: cell-based, human; settings: 24h, 100 μg/ml antibody or **300 ng/ml TWEAK
Method: as §3, §4

A253 cells = experiment: Inhibition of proliferation (Cell Titer Glo); format: cell-based, human; settings: 72h, 100 μg/ml antibody or **300 ng/ml TWEAK
Method: as §3, §4

SK-OV3 cells = experiment: Inhibition of proliferation (Cell Titer Glo); format: cell-based, human; settings: 96h, 100 μg/ml antibody
Method: as §3, §4

- ELISA binding to full ectodomain (28-80) [1]: saturated binding
- ka [2]: 1.2e+06 M⁻¹ s⁻¹
- kd [2]: 0.0027 s⁻¹
- ELISA binding to C-terminally truncated ectodomain (28-68) [3]: impaired binding
- ELISA binding to N- and C-terminally truncated construct (34-68) [4]: impaired binding
Substance: P4A8(TPP-1324): reference agonistic anti-TWEAKR antibody, human IgG1, variable domains from WO2009/140177; SEQ ID NO 125/126 [reference compound]
- pKd (TWEAKR; listed as BIIB036/P4A8): 8.77
- pKd (TWEAKR): 8.59
- % Inhibition of proliferation (Lovo cells): −5%
- % Inhibition of proliferation (SW480 cells): 5%
- % Inhibition of proliferation (NCI-H1975 cells): 20%

- ka [2]: 1e+07 M⁻¹ s⁻¹
- kd [2]: 0.038 s⁻¹
- pKd ([2]; monovalent KD): 8.43
Substance: PDL-192(TPP-1104): reference agonistic anti-TWEAKR antibody, human IgG1, variable domains from WO2009/020933; SEQ ID NO 127/128 [reference compound]
- IL-8 release, % of the activation as compared to 300 ng/ml TWEAK ligand (A375 cells [5]): 66%
- % Inhibition of proliferation (WiDr cells [6]): 12%
- GeoMean of Fluorescence minus GeoMean with the secondary antibody only (WiDr cells [7]): 3563
- GeoMean of Fluorescence minus GeoMean with the secondary antibody only (786-O cells [8]): 25283
- GeoMean of Fluorescence minus GeoMean with the secondary antibody only (HT-29 cells [9]): 2127
- GeoMean of Fluorescence minus GeoMean with the secondary antibody only (A375 cells [10]): 865
- GeoMean of Fluorescence minus GeoMean with the secondary antibody only (SK-OV-3 cells): 4053
- GeoMean of Fluorescence minus GeoMean with the secondary antibody only (NCI-H322 cells): 330
- pKd (TWEAKR): 8.26
- % Inhibition of proliferation (Lovo cells): 49%
- % Inhibition of proliferation (786-O cells [11]): 41%
- % Inhibition of proliferation (HT-29 cells [12]): 62%
- % Inhibition of proliferation (A253 cells): 87%
- % Inhibition of proliferation (SW480 cells): 27%
- % Inhibition of proliferation (SK-OV3 cells): 44%
- % Inhibition of proliferation (NCI-H1975 cells): 46%
